US5183821A, “Method for treating leukemias using N-(2-dimethylaminoethyl)-3-amino-1,8-naphthalimide for treating leukemias and solid tumors” (priority 1991, dated 1993)
“Also recorded” adds a separate entry of the source.

Experiments:
[1] = Blood compatibility testing, canine; details: 50 mg/ml, 1:1
[2] = test system: M5076 ovarian carcinoma; test: NCI screen, M5076 ovarian carcinoma, intraperitoneal (summary); format: in vivo, Mouse; details: for Antitumor activity in words: M5076
Text: The activity of the compound has been evaluated by experiments carried out under the auspices of the Division of Cancer Treatment, National Cancer Institute, employing techniques considered to be reliable indicators of chemotherapeutic utility in the treatment of forms of cancer in human patients. The details of the methodology employed in the reported experiments may be determined with reference to established NCI screening methods. In the experiments conducted by the NCI, evaluation of activity is made on the basis of appropriate parameters, such as median survival time (MST) or change in average tumor diameter (CATD)in ocular micrometer units (OMU).

[3] = test system: CX-1 colon xenograft; test: NCI screen, CX-1 colon xenograft, renal capsule (summary); format: in vivo, human tumor xenograft in athymic mice; details: for Antitumor activity in words: CX-1 colon xenograft
Text: The activity of the compound has been evaluated by experiments carried out under the auspices of the Division of Cancer Treatment, National Cancer Institute, employing techniques considered to be reliable indicators of chemotherapeutic utility in the treatment of forms of cancer in human patients. The details of the methodology employed in the reported experiments may be determined with reference to established NCI screening methods.
In the experiments conducted by the NCI, evaluation of activity is made on the basis of appropriate parameters, such as median survival time (MST) or change in average tumor diameter (CATD)in ocular micrometer units (OMU).

[4] = test system: L-1210 Lymphoid leukemia; test: Experiment 2: L-1210 s.c., 10^5 cells, acid diluted with saline, female; format: in vivo, Mouse CD2 F1 (CDF1)
Text: Host: Mouse CD2 F1 (CDF1)
Tumor: L-1210 Lymphoid leukemia
Inoculum site: Subcutaneous
Vehicle: Acid diluted with saline
Treatment schedule (relative to tumor inoculation day): daily on days 1-9
Day of evaluation (relative to tumor inoculation day): 30
Parameter: Median survival time (MST) in days
NCI minimal activity criteria: Percent T/C≥125
Percent T/C: Ratio of test (T) evaluation to control (C) evaluation expressed as a percentage

CN(C)CCN1C(=O)c2cccc3cc(N)cc(c23)C1=O [Example 9, 1H-Benz[de]isoquinoline-1,3(2H)-dione, 5-amino-2-[2-(dimethylamino)ethyl]]
blood compatibility ([1]; canine heparinized plasma): compatibility
blood compatibility ([1]; canine serum): compatibility
Antitumor activity in words ([2]; listed as BIDA): Activity was seen
Antitumor activity in words ([2]; listed as the compound): activity substantially greater than the level considered to be of minimal interest; also recorded: exceeded the minimal level of activity for clinical interest
Table II evaluation ([2]; mean survival time, 15 tests, full wrapped cell: Activity Substantially greater than the minimal): Activity
Antitumor activity in words ([3]; listed as BIDA): No activity was seen
Antitumor activity in words ([3]; listed as the compound): not active
Table II evaluation ([3]; change in average tumor diameter, 4 tests, full wrapped cell: Activity not confirmed): Activity not
Median survival time (MST) ([4]; 5.00 mg/kg i.p.): 8.2 days
Percent T/C ([4]; 5.00 mg/kg i.p.): 102%
Median survival time (MST) ([4]; 7.00 mg/kg i.p.): 8.3 days
Percent T/C ([4]; 7.00 mg/kg i.p.): 103%
Median survival time (MST) ([4]; 10.00 mg/kg i.p.): 9.0 days
Percent T/C ([4]; 10.00 mg/kg i.p.): 112%
Median survival time (MST) ([4]; 16.00 mg/kg i.p.): 12.0 days
Percent T/C ([4]; 16.00 mg/kg i.p.): 150%
Median survival time (MST) ([4]; 24.00 mg/kg i.p.): 9.3 days
Percent T/C ([4]; 24.00 mg/kg i.p.): 116%
